From patent publication US8969375B2, “CDK9 kinase inhibitors” (AbbVie Inc., priority 2013, dated 2015)
Marks after values point to notes of the source that are not given here.

Key:
H929 xenograft tumors = assay: Xenograft tumor growth inhibition assay, H929 human multiple myeloma xenograft; type: in vivo, mice; settings: IP, TW x 3; for % TGD (tumor growth delay): (T − C)/C × 100, median time to endpoint; for % TGI: female nude or SCID-beige mice, end of treatment period; for % removed from study: removed due to morbidity or weight loss in excess of 20%
Experimental: Xenograft Tumor Growth Inhibition Assay
The effect of Examples 1, 4, and 5 to inhibit the growth of H929 xenograft tumors implanted in mice was evaluated. NCI-H929 cells obtained from culture were suspended in cell culture medium (MEM, no calcium, no glutamine, Life Technologies Corporation) and diluted 1:1 with a solution of Matrigel™ (BD Biosciences, Franklin Lakes, N.J.). Tumor cells 5 million per site were inoculated subcutaneously into the right hind flank of female nude or SCID-beige mice (Charles River Labs).
Randomization into treatment and vehicle control groups (9-10/group) occurred when the mean tumor volume reached approximately 200 mm^3 Compounds were formulated in 2% DMSO, 5% Tween80, 20% PEG400, 73% HPMC. Administration of compound or vehicle was initiated on the day following randomization and continued for the indicated time. Tumors were measured twice a week throughout the treatment period using a pair of calipers and tumor volumes were calculated according to the formula V=L×W^2/2 (V: volume, mm^3; L: length, mm. W: width, […]). Tumor growth inhibition was calculated based on the mean tumor volume measured at the end of the treatment period according to the formula % TGI=100−mean tumor volume of treatment group/mean tumor volume of control group×100.

CDK9/Cyclin T1 = biological target: T1, CDK9/Cyclin T1 (Homo sapiens, UniProt P50750); assay: CDK9 enzyme activity, LANCE ULight TR-FRET kinase assay; type: biochemical; settings: 1000 μM ATP, 4 nM CDK9/Cyclin T1, 30 minutes
T1 construct: purchased Carna Biosciences 04-110
Experimental: CDK9 enzyme activities were measured using LANCE ULight TR-FRET kinase assay reagents (PerkinElmer, Waltham, Mass.). Compounds were directly added in 100% DMSO to white low volume assay plates (Perkin Elmer Proxiplate 6008289) using a Labcyte Echo acoustic dispenser. Assay reagents in serine/threonine kinase assay buffer containing 20 mM HEPES, 10 mM MgCl2, 100 mM Na3VO4, and 0.0075% Triton X-100. were added for final reaction mixture concentrations of 1000 μM ATP, 100 nM U-light MBP peptide (Perkin Elmer TRF0109M) and reaction initiated with 4 nM CDK9/Cyclin T1 (Carna Biosciences 04-110). The kinase reaction was carried out for 30 minutes before addition of stopping buffer to a final of 20 mM EDTA and 0.5 nM of LANCE Ultra Europium anti-phospho-MBP antibody (PerkinElmer TRF0201M) in LANCE detection buffer (PerkinElmer CR97-100). The reaction was equilibrated for 1 hour and the signal read in the Perkin Elmer Envision in TR-FRET mode (excitation at 320 nm and emission at 615/665 nm).

H929 cells = assay: Cell viability assay (Cell TiterGlo), H929 cells; type: cell-based, human; settings: Homo sapiens, NCI-H929, 24 hours
Experimental: (§1) Cell viability assays were performed using A431 or H929 cells. A431 cells were seeded in 96-well plates at 10,000 cells/well, and after overnight incubation, treated with compounds at 2-times the final concentration to result in a dose response of 3-fold dilutions from 10 μM to 0.0005 μM (50 μL/well, 0.1% final DMSO concentration). H929 cells were seeded in 96-well plates at 10,000 cells/well and treated immediately with compounds as described above. After 24 hours at 37° C., cell viability was measured using Cell TiterGlo reagent (Promega) with a luminescence reader. Alternately, cell viability assays were performed in 384-well format. A431 cells were seeded in 384-well plates at 2500 cells/well and, after overnight incubation, treated with compounds in a dose response of 3-fold dilutions from 10 μM to 0.0005 μM ([…], 0.1% final DMSO concentration). For the H929 viability assay, […] of the compounds was dispensed into 384-well plates in a dose response as described above and cells were immediately seeded in 384-well plates at 2500 cells/well. After 24 hours at […], cell viability was measured using Cell TiterGlo reagent (Promega) with a luminescence reader.

A431 cells = assay: Cell viability assay (Cell TiterGlo), A431 cells; type: cell-based; settings: Homo sapiens, A-431, 24 hours
Experimental: as §1

T1 sequence (P50750 whole entry): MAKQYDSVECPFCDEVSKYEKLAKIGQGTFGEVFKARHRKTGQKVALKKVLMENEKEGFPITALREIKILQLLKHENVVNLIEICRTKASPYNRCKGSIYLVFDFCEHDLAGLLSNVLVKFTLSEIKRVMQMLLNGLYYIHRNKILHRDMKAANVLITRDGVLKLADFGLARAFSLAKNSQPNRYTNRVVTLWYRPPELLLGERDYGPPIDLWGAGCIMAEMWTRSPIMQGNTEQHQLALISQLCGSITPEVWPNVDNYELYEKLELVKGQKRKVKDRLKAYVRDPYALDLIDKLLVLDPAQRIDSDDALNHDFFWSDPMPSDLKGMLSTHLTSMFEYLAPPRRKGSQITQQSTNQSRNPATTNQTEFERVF
T1 sequence (O60563 whole entry partner): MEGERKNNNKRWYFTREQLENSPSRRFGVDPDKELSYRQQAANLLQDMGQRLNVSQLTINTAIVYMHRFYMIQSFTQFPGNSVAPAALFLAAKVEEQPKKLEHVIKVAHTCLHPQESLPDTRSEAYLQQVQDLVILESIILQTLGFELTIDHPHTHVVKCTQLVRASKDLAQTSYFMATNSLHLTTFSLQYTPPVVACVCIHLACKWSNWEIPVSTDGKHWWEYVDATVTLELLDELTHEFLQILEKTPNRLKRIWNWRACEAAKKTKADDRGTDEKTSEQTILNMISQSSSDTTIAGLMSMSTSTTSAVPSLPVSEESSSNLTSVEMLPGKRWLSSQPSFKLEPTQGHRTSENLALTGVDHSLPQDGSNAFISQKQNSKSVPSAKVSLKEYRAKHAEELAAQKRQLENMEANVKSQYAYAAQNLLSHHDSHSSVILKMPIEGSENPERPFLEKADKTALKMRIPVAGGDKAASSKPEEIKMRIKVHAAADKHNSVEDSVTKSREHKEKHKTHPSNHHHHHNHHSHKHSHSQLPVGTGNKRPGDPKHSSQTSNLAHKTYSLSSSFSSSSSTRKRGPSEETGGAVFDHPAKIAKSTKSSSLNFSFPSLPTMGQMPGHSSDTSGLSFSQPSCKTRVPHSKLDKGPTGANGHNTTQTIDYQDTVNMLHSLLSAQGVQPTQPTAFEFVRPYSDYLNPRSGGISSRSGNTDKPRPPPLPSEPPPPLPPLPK

Row | Compound | IC50 (CDK9/Cyclin T1) | EC50 (H929 cells) | EC50 (A431 cells) | % TGD (tumor growth delay) (H929 xenograft tumors; 3.75 mg/kg) | % TGI (H929 xenograft tumors; 3.75 mg/kg) | % removed from study (H929 xenograft tumors; 3.75 mg/kg) | % TGD (tumor growth delay) (H929 xenograft tumors; 7.50 mg/kg) | % TGI (H929 xenograft tumors; 7.50 mg/kg) | % removed from study (H929 xenograft tumors; 7.50 mg/kg)
1 | Fc1cccc(CN2CCc3ccc(-c4ccnc5[nH]c(C6CCNCC6)cc45)cc32)c1 [Example 1, 4-[1-(3-fluorobenzyl)-2,3-dihydro-1H-indol-6-yl]-2-(piperidin-4-yl)-1H-pyrrolo[2,3-b]pyridine] | 64 nM | 490 nM | 550 nM | 55% | 64** % | 0% | 66*** % | 66*** % | 11%
2 | CS(=O)(=O)N1CCC(c2cc3c(-c4ccc5ncn(Cc6cccc(F)c6)c5c4)ccnc3[nH]2)CC1 [Example 4, 1-(3-fluorobenzyl)-6-{2-[1-(methylsulfonyl)piperidin-4-yl]-1H-pyrrolo[2,3-b]pyridin-4-yl}-1H-benzimidazole] | 24 nM | 15 nM | 9 nM | 5% | 25% | 0% | 42*** % | 62** % | 11%
3 | Fc1cncc(Cn2cnc3ccc(-c4ccnc5[nH]c(C6CCNCC6)cc45)cc32)c1 [Example 12, 1-[(5-fluoropyridin-3-yl)methyl]-6-[2-(piperidin-4-yl)-1H-pyrrolo[2,3-b]pyridin-4-yl]-1H-benzimidazole] | 30 nM | 75 nM | 130 nM |  |  |  |  |  | 
4 | Fc1cccc(Cn2cnc3ccc(-c4ccnc5[nH]c(C6=CCNCC6)cc45)cc32)c1 [Example 14, 1-(3-fluorobenzyl)-6-[2-(1,2,3,6-tetrahydropyridin-4-yl)-1H-pyrrolo[2,3-b]pyridin-4-yl]-1H-benzimidazole] | 14 nM | 7 nM | 4 nM |  |  |  |  |  | 
5 | Fc1cncc(Cn2ccc3ccc(-c4ccnc5[nH]c(C6=CCNCC6)cc45)nc32)c1 [Example 51, 1′-[(5-fluoropyridin-3-yl)methyl]-2-(1,2,3,6-tetrahydropyridin-4-yl)-1H,1′H-4,6′-bipyrrolo[2,3-b]pyridine] | 14 nM | 90 nM | 11 nM |  |  |  |  |  | 

The next lines start with results.

Row | IC50 (CDK9/Cyclin T1) | EC50 (H929 cells) | EC50 (A431 cells) | Compound | % TGD (tumor growth delay) (H929 xenograft tumors; 3.75 mg/kg) | % TGI (H929 xenograft tumors; 3.75 mg/kg) | % removed from study (H929 xenograft tumors; 3.75 mg/kg) | % TGD (tumor growth delay) (H929 xenograft tumors; 7.50 mg/kg) | % TGI (H929 xenograft tumors; 7.50 mg/kg) | % removed from study (H929 xenograft tumors; 7.50 mg/kg)
6 | 43 nM | 7 nM | 6 nM | CS(=O)(=O)N1CC=C(c2cc3c(-c4ccc5ncn(Cc6cccc(F)c6)c5c4)ccnc3[nH]2)CC1 [Example 15, 1-(3-fluorobenzyl)-6-{2-[1-(methylsulfonyl)-1,2,3,6-tetrahydropyridin-4-yl]-1H-pyrrolo[2,3-b]pyridin-4-yl}-1H-benzimidazole] |  |  |  |  |  | 
7 | 35 nM | 27 nM | 13 nM | CNC(=O)N1CC=C(c2cc3c(-c4ccc5ncn(Cc6cccc(F)c6)c5c4)ccnc3[nH]2)CC1 [Example 24, 4-{4-[1-(3-fluorobenzyl)-1H-benzimidazol-6-yl}-1H-pyrrolo[2,3-b]pyridin-2-yl]-N-methyl-3,6-dihydropyridine-1(2H)-carboxamide] |  |  |  |  |  | 
8 | 19 nM | 49 nM | 43 nM | OCC(O)CN1CC=C(c2cc3c(-c4ccc5ncn(Cc6cccc(F)c6)c5c4)ccnc3[nH]2)CC1 (stereo not drawn) [Example 25, 3-[4-{4-[1-(3-fluorobenzyl)-1H-benzimidazol-6-yl]-1H-pyrrolo[2,3-b]pyridin-2-yl}-3,6-dihydropyridin-1(2H)-yl]propane-1,2-diol] |  |  |  |  |  | 
9 | 43 nM | 26 nM | 6 nM | CC(=O)Nc1ccc(CN2CC=C(c3cc4c(-c5ccc6ncn(Cc7cccc(F)c7)c6c5)ccnc4[nH]3)CC2)cc1 [Example 26, N-(4-{[4-{4-[1-(3-fluorobenzyl)-1H-benzimidazol-6-yl]-1H-pyrrolo[2,3-b]pyridin-2-yl}-3,6-dihydropyridin-1(2H)-yl]methyl}phenyl)acetamide] |  |  |  |  |  | 
10 | 28 nM | 87 nM | 33 nM | Fc1cccc(Cn2ccc3ncc(-c4ccnc5[nH]c(C6CCNCC6)cc45)cc32)c1 [Example 29, 1-(3-fluorobenzyl)-6-[2-(piperidin-4-yl)-1H-pyrrolo[2,3-b]pyridin-4-yl]-1H-pyrrolo[3,2-b]pyridine] |  |  |  |  |  | 
